Experiment: Solubility and chemical stability of baicalin in aqueous medium as a function of pH
Assay type: physicochemical
Source text: Baicalin is a polyphenol displaying an antioxidant activity. There is thus a need, for consumers, to provide cosmetic compositions comprising baicalin, or an extract containing same, at a high concentration and having a greater antioxidant efficacy than the cosmetic compositions known in the prior art comprising baicalin. However, the solubility of baicalin is very low in aqueous medium. It is therefore very difficult to incorporate in a composition, in particular a cosmetic composition, at a high mass concentration, in particular at a mass concentration greater than 0.2%. At a mass concentration greater than 0.2%, the appearance of the presence of crystallized baicalin is observed. The present inventors have identified that the solubility of baicalin was increased with the pH.
In particular, the method implemented to incorporate baicalin, or an extract containing same, at a high mass concentration, i.e. for example greater than 0.5% in the aqueous phase of a composition consists, in a first transitory step, of completely dissolving the baicalin in aqueous phase in a basic medium using a base to raise the pH to a value greater than 6. Under these conditions, it is possible to prepare aqueous solutions comprising up to 10% baicalin as a mass concentration, without using hydrotropic agents.
Baicalin is presented in the form of a yellow powder, having a purity optionally greater than 90 or 95%. Baicalin crystals may be presented in the form of needles.

## O=C(O)[C@H]1O[C@@H](Oc2cc3oc(-c4ccccc4)cc(=O)c3c(O)c2O)[C@H](O)[C@@H](O)[C@@H]1O [Baicalin]
  baicalin mass concentration attainable in aqueous solution: up to 10%
At a pH greater than 6
  chemical stability of baicalin: chemically unstable and is degraded
In a composition, mass concentration
  mass concentration above which crystallized baicalin appears: greater than 0.2%

From patent US20180369111A1, “COMPOSITION COMPRISING BAICALIN AT A HIGH CONCENTRATION” (L'OREAL, priority 2015, published 2018)
